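Tested at 5 concentrations; 48 h exposure; 96-well plates; endpoints linearly interpolated, else capped at highest concentration. GI50 is the concentration that inhibits growth by half. TGI marks complete inhibition of growth.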
How the values were obtained:
Experiment in all cases: DTP human tumour cell line panel, 48 h
ACHN renal = test system: ACHN renal
HOP-62 NSCLC = test system: HOP-62 NSCLC
HOP-92 NSCLC = test system: HOP-92 NSCLC
IGROV1 ovarian = test system: IGROV1 ovarian
NCI-H522 lung = test system: NCI-H522 lung
NCI/ADR-RES ovarian = test system: NCI/ADR-RES ovarian
PC-3 prostate = test system: PC-3 prostate
RXF 393 renal = test system: RXF 393 renal
SF-268 CNS = test system: SF-268 CNS
UACC-62 melanoma = test system: UACC-62 melanoma

Row | Structure (SMILES) | GI50 (ACHN renal) | TGI (ACHN renal) | GI50 (HOP-62 NSCLC) | TGI (HOP-62 NSCLC) | GI50 (HOP-92 NSCLC) | TGI (HOP-92 NSCLC) | GI50 (IGROV1 ovarian) | TGI (IGROV1 ovarian) | GI50 (NCI-H522 lung) | TGI (NCI-H522 lung) | GI50 (NCI/ADR-RES ovarian) | TGI (NCI/ADR-RES ovarian) | GI50 (PC-3 prostate) | TGI (PC-3 prostate) | GI50 (RXF 393 renal) | TGI (RXF 393 renal) | GI50 (SF-268 CNS) | TGI (SF-268 CNS) | GI50 (UACC-62 melanoma) | TGI (UACC-62 melanoma)
1 | O=C(Nc1cccc(-n2ccc3c(NC(=O)c4ccccc4)nccc32)c1)c1cccc(C(F)(F)F)c1 | 0.0782 µM | 12.5 µM | 0.0543 µM | 16.5 µM | 0.281 µM | 8.07 µM | 0.0844 µM | > 46.9 µM | 0.0199 µM | 0.0759 µM | 0.0327 µM | > 100 µM | 0.0434 µM | > 100 µM | 0.0187 µM | 0.0442 µM | 0.0709 µM | 12.4 µM | 0.0386 µM | 6.91 µM
2 | CCn1c(-c2nonc2N)nc2c(C#CCN)ncc(OCCCN)c21 | > 25 µM | > 25 µM | > 25 µM | > 25 µM | 4.64 µM | > 25 µM | > 25 µM | > 25 µM | > 25 µM | > 25 µM | > 25 µM | > 25 µM | > 25 µM | > 25 µM | > 25 µM | > 25 µM | > 25 µM | > 25 µM | > 25 µM | > 25 µM
3 | Brc1cccc(-c2cc(-c3ccc4c(c3)OCCO4)[nH]n2)c1 | 1.54 µM | 33.2 µM | 1.38 µM | 41.3 µM | 4.31 µM | 32.9 µM | 1.31 µM | 30.2 µM | 0.755 µM | 34.8 µM | 0.766 µM | 29.8 µM | 1.44 µM | 41.4 µM | 1.77 µM | 25.7 µM | 3.11 µM | 37.1 µM | 0.871 µM | 40.9 µM
4 | CN=C(N)N/N=C(\c1ccccc1)c1ccc(Br)cc1 | 0.467 µM | 10.1 µM | 1.15 µM | 13.3 µM | 0.3 µM | 2.9 µM | 0.629 µM | 17.1 µM | 0.21 µM | 0.616 µM | 0.322 µM | 3.25 µM | 0.402 µM | 11 µM | 0.247 µM | 0.711 µM | 0.685 µM | 11.8 µM | 0.859 µM | 9.16 µM
5 | CC(C)(C)OC(=O)n1cc(CNC(=S)Nc2ccccc2)c2ccccc21 | 5.12 µM | 19.6 µM | 17.2 µM | 38 µM | 8.94 µM | 25.7 µM | 27.6 µM | > 100 µM | > 100 µM | > 100 µM | 10.8 µM | 22.7 µM | 10.5 µM | 23 µM | 19.3 µM | 43.2 µM | 11.4 µM | 33.1 µM | 13.3 µM | 26.1 µM
6 | COc1cc(/C=C\[N+](=O)[O-])ccc1O | 2.36 µM | 6.01 µM | 3.21 µM | 13.8 µM | 1.26 µM | 3.73 µM | 2.61 µM | 6.97 µM | 1.3 µM | 3.02 µM | 2.84 µM | 7.95 µM | 8.63 µM | 21.6 µM | 1.91 µM | 3.48 µM | 3.44 µM | 12.8 µM | 1.78 µM | 3.99 µM
